In the CombiSolv-Exp solvation set (Vermeire and Green 2021):

Assay: solvent given as SMILES

CCI
Settings	solvation free energy, 298 K [kcal/mol]
in Brc1cccc2ccccc12	-3.97
in Brc1ccccc1	-4.23
in C1CCOC1	-4.45
in C1COCCO1	-4.21
in C=CCCCCCCCCCCCCCC	-3.53
in CC1COC(=O)O1	-3.71
in CC#N	-3.81
in CC(=O)N(C)C	-3.97
in CC(=O)OCc1ccccc1	-3.91
in CC(=O)c1ccccc1	-4.05
in CC(C)(C)O	-3.48
in CC(C)=O	-4
in CC(C)CC(C)(C)C	-3.61
in CC(C)CCO	-3.75
in CC(C)O	-3.56
in CCC#N	-3.94
in CCC(C)=O	-4.1
in CCCBr	-4.31
in CCCCCC	-3.73
in CCCCCCC	-3.68
in CCCCCCCC	-3.66
in CCCCCCCCO	-3.53
in CCCCCl	-4.15
in CCCCO	-3.63
in CCCO	-3.55
in CCO	-3.57
in CCOC(=O)c1ccccc1	-3.99
in CCOC(C)=O	-4.04
in CCOCC	-3.78
in CN(C)C=O	-3.83
in CO	-3.58
in CS(C)=O	-3.82
in Cc1ccc(C)cc1	-4.14
in Cc1ccccc1	-4.2
in ClC1CCCCC1	-4.19
in ClC(Cl)(Cl)Cl	-4.17
in ClC(Cl)C(Cl)Cl	-4.41
in ClC(Cl)Cl	-4.44
in ClCCCl	-4.2
in ClCCl	-4.12
in Clc1ccccc1	-4.22
in Ic1ccccc1	-4.29
in N#Cc1ccccc1	-4
in O	-0.74
in O=C1CCCCC1	-4.18
in c1ccc2ncccc2c1	-3.93
in c1ccccc1	-4.32

CCNc1nc(Cl)nc(NC(C)C)n1
Settings	solvation free energy, 298 K [kcal/mol]
in O	-9.69

C1CCOCC1
Settings	solvation free energy, 298 K [kcal/mol]
in C1COCCO1	-4.53
in CC(C)CCl	-4.65
in CCC(C)Cl	-4.65
in CCCCCCCCCCCCCCCC	-3.89
in CCCCCCCCO	-4.34
in CCCCCl	-4.71
in O	-3.12
in [2H]O[2H]	-3.08

CN1C(=O)CN=C(c2ccccc2)c2cc(Cl)ccc21
Settings	solvation free energy, 298 K [kcal/mol]
in O	-12.6

CC(C)CN(CC(C)C)N=O
Settings	solvation free energy, 298 K [kcal/mol]
in CC(C)CC(C)(C)C	-7.35
in O	-4.84

N#CCc1ccccc1
Settings	solvation free energy, 298 K [kcal/mol]
in CCCCCCCCCCCCCCCC	-6.06
in O	-5.05

O=C(O)Cc1ccccc1
Settings	solvation free energy, 298 K [kcal/mol]
in C=CCCCCCCC=C	-7.39
in CCOC(C)=O	-11.1
in O	-8.74

Clc1cc2c(cc1Cl)Oc1ccccc1O2
Settings	solvation free energy, 298 K [kcal/mol]
in O	-3.56

Cc1ccc(O)c(C)c1
Settings	solvation free energy, 298 K [kcal/mol]
in CCCCCC	-6.51
in CCCCCCC	-6.48
in CCCCCCCC	-6.46
in O	-6.02

C1CCCNCC1
Settings	solvation free energy, 298 K [kcal/mol]
in C1CCCCC1	-5.66

CC1=CC2C(CCC(C)=CCC1)C2(C)C (stereo not drawn)
Settings	solvation free energy, 298 K [kcal/mol]
in O	-0.52

C=COC(C)=O
Settings	solvation free energy, 298 K [kcal/mol]
in CC(C)=O	-4.46
in CCN(CC)C(C)=O	-4.2
in CCNC(C)=O	-3.83
in CCNC=O	-3.92
in CN1CCCC1=O	-4.16
in O	-2.67
in O=CN1CCOCC1	-3.98

C=CC(=C)CCC=C(C)C
Settings	solvation free energy, 298 K [kcal/mol]
in O	-0.5

Oc1ccc(Cl)cc1Cl
Settings	solvation free energy, 298 K [kcal/mol]
in CCCCCC	-6.8
in CCCCCCC	-6.85
in CCCCCCCC	-6.82
in CCCCCCCCC=CCCCCCCCC(=O)OCC(COC(=O)CCCCCCCC=CCCCCCCCC)OC(=O)CCCCCCCC=CCCCCCCCC	-7.49
in CCCCCCCCCC	-6.79
in Cc1ccc(C)cc1	-7.58
in Cc1cccc(C)c1	-7.56
in Cc1ccccc1C	-7.64
in O	-4.98
